“And” between values parts separate entries of the source, which are not always exact repeats. Equal entries are not always repeated.
Test: Infusion compatibility of constituted 25HC3S solution with 5% dextrose, 0.9% sodium chloride and two infusion sets
Format: physicochemical
Settings: for Osmolality / pH / % Remaining Compared to T = 0 / Concentration / T = 0 Conc.: 5% dextrose bag
Experimental: After constitution with Vehicle, the 30 mg/mL 25HC3S product was diluted into 100 mL of 5% dextrose injection, USP or 0.9% sodium chloride injection, USP, and was administered to subjects as an IV infusion ranging from a 30 mg to 150 mg 25HC3S dose. This was accomplished by adding 1.0 mL (for the 30 mg dose) or 5.0 mL (for the 150 mg dose), or any volume in between, of the 30 mg/mL 25HC3S product into a 100 mL dextrose or sodium chloride infusion bag. The entire admixture content in the infusion bag was infused into the subject over approximately 2 hours at a rate of 50 mL/hour.
A physical and chemical compatibility study was conducted at a 30 mg, 48 mg and 300 mg 25HC3S dose in 5% dextrose and 0.9% sodium chloride infusion bags. Descriptions of the two kinds of infusion sets tested with 25HC3S product diluted in 5% dextrose and 0.9% sodium chloride are listed in Table 15. The tubing in catalog number 2H8480 infusion set was composed of polyvinylchloride (PVC), while the tubing in catalog number 2C8858 was polyethylene lined except for a short pump segment (approximately 12 inches) which was composed of PVC.
25HC3S for Injection and Vehicle for 25HC3S for Injection, that had been stored at 2-8° C. for approximately 16 months, were used for the compatibility study. After constitution, 30 mg (1.0 mL of constituted product), 48 mg (1.6 mL of constituted product) or 300 mg (10 mL of constituted product) were added to 100 mL infusion bags of 5% dextrose and 0.9% sodium chloride, mixed thoroughly, and stored for 24 hours at room temperature and at 2-8° C. […] Taking into consideration the overfill per infusion bag and the additional volume introduced by adding the constituted 25HC3S product to each bag, the expected concentrations of 25HC3S were 0.28 mg/mL, 0.44 mg/mL, and 2.56 mg/mL in the infusion bags. Two kinds of infusion sets were then attached to the drug containing infusion bags, and the entire contents were eluted through the infusion sets at approximately 50 mL/hour at room temperature. Samples were collected from the 25HC3S prepared infusion bags at T=0 and at 24 hours, and from the total eluent passed through the infusion sets, and tested for 25HC3S concentration using HPLC. Solution visual appearance, osmolality (using method USP<785>), and pH (using method USP<791>) were also measured on the collected samples.

[1] = 5% dextrose, ~0.28 mg/mL, 24 h 2-8°C then Baxter 2C8858
[2] = 5% dextrose, ~0.28 mg/mL, 24 h 2-8°C then Baxter 2H8480
[3] = 5% dextrose, ~0.28 mg/mL, 24 h RT then Baxter 2C8858
[4] = 5% dextrose, ~0.28 mg/mL, 24 h RT then Baxter 2H8480
[5] = 5% dextrose, ~0.44 mg/mL, 24 h 2-8°C then Baxter 2C8858
[6] = 5% dextrose, ~0.44 mg/mL, 24 h 2-8°C then Baxter 2H8480
[7] = 5% dextrose, ~0.44 mg/mL, 24 h RT then Baxter 2C8858
[8] = 5% dextrose, ~0.44 mg/mL, 24 h RT then Baxter 2H8480
[9] = 5% dextrose, ~2.56 mg/mL, 24 h 2-8°C then Baxter 2C8858
[10] = 5% dextrose, ~2.56 mg/mL, 24 h 2-8°C then Baxter 2H8480
[11] = 5% dextrose, ~2.56 mg/mL, 24 h RT then Baxter 2C8858
[12] = 5% dextrose, ~2.56 mg/mL, 24 h RT then Baxter 2H8480

C[C@H](CCCC(C)(C)O)[C@H]1CC[C@H]2[C@@H]3CC=C4C[C@@H](OS(=O)(=O)[O-])CC[C@]4(C)[C@H]3CC[C@]12C.[Na+] [25HC3S, 5-cholesten-3, 25-diol, 3-sulfate]
Osmolality (~0.28 mg/mL, 24 Hours at 2-8°C): 250 mmol/kg and 253 mmol/kg
pH (~0.28 mg/mL, 24 Hours at 2-8°C): 7.09 and 7.04
% Remaining Compared to T = 0 (~0.28 mg/mL, 24 Hours at RT): (100.0%)
Concentration (~0.28 mg/mL, 24 Hours at RT): 276 µg/mL and 277 µg/mL
Osmolality (~0.28 mg/mL, 24 Hours at RT): 252 mmol/kg and 249 mmol/kg
pH (~0.28 mg/mL, 24 Hours at RT): 7.12 and 7.05
Osmolality (~0.28 mg/mL, T = 0): 247 mmol/kg and 250 mmol/kg and 251 mmol/kg
T = 0 Conc. (~0.28 mg/mL, T = 0): 0.276 mg/mL and 0.277 mg/mL and 0.280 mg/mL and 0.279 mg/mL
pH (~0.28 mg/mL, T = 0): 7.09 and 7.03 and 7.10 and 7.04
Concentration (~0.44 mg/mL, 24 Hours at 2-8°C): 438 µg/mL and 440 µg/mL
Osmolality (~0.44 mg/mL, 24 Hours at 2-8°C): 254 mmol/kg and 257 mmol/kg
pH (~0.44 mg/mL, 24 Hours at 2-8°C): 6.96 and 6.93
% Remaining Compared to T = 0 (~0.44 mg/mL, 24 Hours at RT): (100.0%)
Concentration (~0.44 mg/mL, 24 Hours at RT): 447 µg/mL and 442 µg/mL
Osmolality (~0.44 mg/mL, 24 Hours at RT): 256 mmol/kg and 253 mmol/kg
pH (~0.44 mg/mL, 24 Hours at RT): 6.91 and 6.90
Osmolality (~0.44 mg/mL, T = 0): 255 mmol/kg and 254 mmol/kg and 256 mmol/kg
T = 0 Conc. (~0.44 mg/mL, T = 0): 0.447 mg/mL and 0.442 mg/mL and 0.439 mg/mL
pH (~0.44 mg/mL, T = 0): 6.83 and 6.81 and 6.82 and 6.88
Concentration (~2.56 mg/mL, 24 Hours at 2-8°C): 2550 µg/mL and 2530 µg/mL
Osmolality (~2.56 mg/mL, 24 Hours at 2-8°C): 246 mmol/kg and 251 mmol/kg
pH (~2.56 mg/mL, 24 Hours at 2-8°C): 6.11 and 6.14
Concentration (~2.56 mg/mL, 24 Hours at RT): 2470 µg/mL and 2520 µg/mL
Osmolality (~2.56 mg/mL, 24 Hours at RT): 257 mmol/kg and 250 mmol/kg
pH (~2.56 mg/mL, 24 Hours at RT): 6.12 and 6.06
Osmolality (~2.56 mg/mL, T = 0): 258 mmol/kg and 247 mmol/kg
T = 0 Conc. (~2.56 mg/mL, T = 0): 2.500 mg/mL and 2.510 mg/mL and 2.530 mg/mL and 2.525 mg/mL
pH (~2.56 mg/mL, T = 0): 6.04 and 6.12 and 6.29 and 6.26
deviation of concentrations from initial T=0 time point (5% dextrose, 24 hours at RT and 2-8°C and after elution through infusion sets): ≤ 1.4%
% Remaining after infusion set [1]: (100.4%)
Concentration after infusion set [1]: 280 µg/mL
Osmolality after infusion set [1]: 252 mmol/kg
pH after infusion set [1]: 6.99
% Remaining after infusion set [2]: (100.0%)
Concentration after infusion set [2]: 280 µg/mL
Osmolality after infusion set [2]: 251 mmol/kg
pH after infusion set [2]: 6.95
% Remaining after infusion set [3]: (100.0%)
Concentration after infusion set [3]: 277 µg/mL
Osmolality after infusion set [3]: 252 mmol/kg
pH after infusion set [3]: 7.04
% Remaining after infusion set [4]: (100.0%)
Concentration after infusion set [4]: 276 µg/mL
Osmolality after infusion set [4]: 252 mmol/kg
pH after infusion set [4]: 6.99
% Remaining after infusion set [5]: (100.2%)
Concentration after infusion set [5]: 440 µg/mL
Osmolality after infusion set [5]: 255 mmol/kg
pH after infusion set [5]: 6.93
% Remaining after infusion set [6]: (100.2%)
Concentration after infusion set [6]: 440 µg/mL
Osmolality after infusion set [6]: 257 mmol/kg
pH after infusion set [6]: 6.91
% Remaining after infusion set [7]: (100.0%)
Concentration after infusion set [7]: 442 µg/mL
Osmolality after infusion set [7]: 253 mmol/kg
pH after infusion set [7]: 6.90
% Remaining after infusion set [8]: (100.2%)
Concentration after infusion set [8]: 448 µg/mL
Osmolality after infusion set [8]: 253 mmol/kg
pH after infusion set [8]: 6.91
% Remaining after infusion set [9]: (100.4%)
Concentration after infusion set [9]: 2535 µg/mL
Osmolality after infusion set [9]: 248 mmol/kg
pH after infusion set [9]: 6.10
% Remaining after infusion set [10]: (100.4%)
Concentration after infusion set [10]: 2540 µg/mL
Osmolality after infusion set [10]: 247 mmol/kg
pH after infusion set [10]: 5.99
% Remaining after infusion set [11]: (101.4%)
Concentration after infusion set [11]: 2545 µg/mL
Osmolality after infusion set [11]: 251 mmol/kg
pH after infusion set [11]: 6.00
% Remaining after infusion set [12]: (99.2%)
Concentration after infusion set [12]: 2480 µg/mL
Osmolality after infusion set [12]: 261 mmol/kg
pH after infusion set [12]: 6.01
solution appearance (dextrose and sodium chloride, all three concentrations, after 24 hours in bags and after elution): clear and colorless solutions
decrease of pH over 24 hours in the infusion bags (sodium chloride, approximately 0.28 mg/mL 25HC3S): ~0.5 pH unit
